In general, IC50 refers to the concentration at which inhibition is half-maximal. A high value points to weaker potency.

This experiment concerns HSV-1. Nature of the experiment: HSV-1 infection of Vero 76 cells, HSV DNA hybridization capture assay. It counts as cell-based, herpes simplex virus 1. The following applies: Human alphaherpesvirus 1; HSV-1 (MOI=0.001) in Vero 76 cells, 40–48 hours at 37° C., viral DNA by hybridization/chemiluminescence. The method, then:
Vero 76 cells were maintained in MEM with Earle's salts, L-glutamine, 8% FBS (Hyclone, A-1111-L) and 100 units/mL Penicillin-100 μg/mL Streptomycin. For assay conditions, FBS was reduced to 2%. Cells are seeded into 96-well tissue culture plates at a density of 5×10^4 cells/well after being incubated for 45 min at 37° C. in the presence of HSV-1 or HSV-2 (MOI=0.001). Test compounds are added to the wells and the plates are incubated at 37° C. for 40–48 hours. Cell lysates are prepared as follows: media was removed and replaced with 150 μL/well 0.2 N NaOH with 1% Igepal CA 630 or NP-40. Plates were incubated up to 14 days at room temperature in a humidified chamber to prevent evaporation.
For the detection probe, a gel-purified, digoxigenin-labeled, […] PCR fragment of the HSV UL-15 sequence was utilized. PCR conditions included 0.5 μM primers, 180 μM dTP, 20 μM dUTP-digoxigenin (Boehringer Mannheim 1558706), 200 μM each of dATP, dCTP, and dGTP, 1×PCR Buffer II (Perkin Elmer), 2.5 mM MgCl2, 0.025 units/μL of AmpliTaq Gold polymerase (Perkin Elmer), and 5 ng of gel-purified HSV DNA per 100 μL Extension conditions were 10 min at 95° C., followed by 30 cycles of 95° C. for 1 min, 55° C. for 30 sec, and 72° C. for 2 min. The amplification was completed with a 10-min incubation at 72° C. Primers were selected to amplify a 728 bp probe spanning a section of the HSV1 UL15 open reading frame (nucleotides 249–977). Single-stranded transcripts were purified with Promega M13 Wizard kits. The final product was mixed 1:1 with a mixture of 6 M GuSCN, 100 mM EDTA and 200 μg/mL herring sperm DNA and stored at 4° C.
The capture DNA plasmid (HSV UL13 region in pUC) was linearized by cutting with Xba I, denatured for 15 min at 95° C. and diluted immediately into Reacti-Bind DNA Coating Solution (Pierce, 17250, diluted 1:1 with TE buffer, pH 8) at 1 ng/μL 75 μL/well were added to Corning (#3922 or 9690) white 96-well plates and incubated at room temperature for at least 4 hrs before washing twice with 300 μL/well 0.2×SSC/0.05% Tween-20 (SSC/T buffer). The plates were then incubated overnight at room temperature with 150 μL/well 0.2 N NaOH, 1% IGEPAL and 10 μg/mL herring sperm DNA.
Twenty-seven (27) μL of cell lysate was combined with 45 μL of hybridization solution (final concentration: 3M GuSCN, 50 mM EDTA, 100 μg/ml salmon sperm DNA, 5× Denhardt's solution, 0.25×APE, and 5 ng of the digoxigenin-labeled detection probe). APE is 1.5 M NH4-acetate, 0.15 M ammonium phosphate monobasic, and 5 mM EDTA adjusted to pH 6.0. Mineral oil (50 μL) was added to prevent evaporation. The hybridization plates were incubated at 95° C. for 10 minutes to denature the DNA, then incubated at 42° C. overnight. The wells were washed 6× with 300 μL/well SSC/T buffer then incubated with 75 μL/well anti-digoxigenin-HRP-conjugated antibody (Boehringer Mannheim 1207733, 1:5000 in TE) for 30 min at room temperature. The wells were washed 6× with 300 μL/well with PBS/0.05% Tween-20 before 75 μL/well SuperSignal LBA substrate (Pierce) was added. The plates were incubated at room temperature for 30 minutes and chemiluminescence was measured in a Wallac Victor reader.
The following results were obtained for HSV-1.

`CCCc1nn2ccccc2c1-c1ccnc(F)c1` [Example 1, 3-(2-Fluoropyridin-4-yl)-2-propylpyrazolo[1,5-a]pyridine]: the IC50 is > 40 µM.
`CCCc1nn2ccccc2c1-c1ccnc(NC2CCCC2)c1` [Example 2, N-Cyclopentyl-4-(2-propylpyrazolo[1,5-a]pyridin-3-yl)pyridin-2-amine]: half-maximal inhibition (IC50) required 8 µM.
In the case of `CCCc1nn2c(Cl)cccc2c1-c1ccnc(F)c1` [Example 3, 7-Chloro-3-(2-fluoropyridin-4-yl)-2-propylpyrazolo[1,5-a]pyridine] it was 37 µM; in that of `CCCc1nn2c(NC3CCCC3)cccc2c1-c1ccnc(NC2CCCC2)c1` [Example 4, N-Cyclopentyl-3-[2-(cyclopentylamino)pyridin-4-yl]-2-propylpyrazolo[1,5-a]pyridin-7-amine], 0.9 µM; in that of `CSc1nccc(-c2c(CC(C)C)nn3ccccc23)n1` [Example 5, 2-Isobutyl-3-[2-(methylthio)pyrimidin-4-yl]pyrazolo[1,5-a]pyridine], 21 µM.
As to `CC(C)Cc1nn2ccccc2c1-c1ccnc([S+](C)[O-])n1` (stereo not drawn) [Example 6, 2-Isobutyl-3-[2-(methylsulfinyl)pyrimidin-4-yl]pyrazolo[1,5-a]pyridine], the half-maximal inhibitory concentration (IC50) was 24 µM.
Turning to `CC(C)Cc1nn2ccccc2c1-c1ccnc(NC2CCCC2)n1` [Example 7, N-Cyclopentyl-4-(2-isobutylpyrazolo[1,5-a]pyridin-3-yl)pyrimidin-2-amine], the IC50 was 18 µM.
In the case of `CSc1cccc2c(-c3ccnc(NC4CCCC4)n3)c(CC(C)C)nn12` [Example 8, N-Cyclopentyl-4-[2-isobutyl-7-(methylthio)pyrazolo[1,5-a]pyridin-3-yl]pyrimidin-2-amine], half-maximal inhibition (IC50) required 3.8 µM.
The molecule `CC(C)Cc1nn2c([S+](C)[O-])cccc2c1-c1ccnc(NC2CCCC2)n1` (stereo not drawn) [Example 9, N-Cyclopentyl-4-[2-isobutyl-7-(methylsulfinyl)pyrazolo[1,5-a]pyridin-3-yl]pyrimidin-2-amine] displayed an IC50 of 1.9 µM.
As to `CC(C)Cc1nn2c(NC3CCCC3)cccc2c1-c1ccnc(NC2CCCC2)n1` [Example 10, N-Cyclopentyl-3-[2-(cyclopentylamino)pyrimidin-4-yl]-2-isobutylpyrazolo[1,5-a]pyridin-7-amine], the IC50 is 0.5 µM.
As for `CSc1nccc(-c2c(C=O)nn3ccccc23)n1` [Example 12, 3-[2-(Methylthio)pyrimidin-4-yl]pyrazolo[1,5-a]pyridine-2-carbaldehyde], the IC50 was > 5 µM.
In the case of `OC(c1ccccc1)c1nn2ccccc2c1-c1ccnc(NC2CCCC2)n1` (stereo not drawn) [Example 14, {3-[2-(Cyclopentylamino)-4-pyrimidinyl]pyrazolo[1,5-a]pyridin-2-yl}(phenyl)methanol] it was 2.5 µM; in that of `O=C(c1ccccc1)c1nn2ccccc2c1-c1ccnc(NC2CCCC2)n1` [Example 15, {3-[2-(Cyclopentylamino)-4-pyrimidinyl]pyrazolo[1,5-a]pyridin-2-yl}(phenyl)methanone], 7 µM.
On to `O=C(c1ccccc1)c1nn2c(NC3CCCC3)cccc2c1-c1ccnc(NC2CCCC2)n1` [Example 16, {7-(Cyclopentylamino)-3-[2-(cyclopentylamino)-4-pyrimidinyl]-pyrazolo[1,5-a]pyridin-2-yl}(phenyl)methanone], for which the IC50 was 0.4 µM.
The value for `c1ccc(Cc2nn3ccccc3c2-c2ccnc(NC3CCCC3)n2)cc1` [Example 17, 4-(2-Benzylpyrazolo[1,5-a]pyridin-3-yl)-N-cyclopentyl-2-pyrimidinamine] was 2 µM.
Take `c1ccc(Cc2nn3c(NC4CCCC4)cccc3c2-c2ccnc(NC3CCCC3)n2)cc1` [Example 19, N-{4-[2-Benzyl-7-(cyclopentylamino)pyrazolo[1,5-a]pyridin-3-yl]-2-pyrimidinyl}-N-cyclopentylamine]: the IC50 stood at 0.8 µM.
The value for `COCc1nn2ccccc2c1-c1ccnc(NC2CCCC2)n1` [Example 20, N-Cyclopentyl-4-[2-(methoxymethyl)pyrazolo[1,5-a]pyridin-3-yl]-2-pyrimidinamine] was 15 µM; that for `COCc1nn2c(SC)cccc2c1-c1ccnc(NC2CCCC2)n1` [Example 21, N-Cyclopentyl-4-[2-(methoxymethyl)-7-(methylsulfanyl)pyrazolo[1,5-a]pyridin-3-yl]-2-pyrimidinamine] was 4.6 µM; that for `COCc1nn2c(NC3CCCC3)cccc2c1-c1ccnc(NC2CCCC2)n1` [Example 22, N-Cyclopentyl-3-[2-(cyclopentylamino)-4-pyrimidinyl]-2-(methoxymethyl)pyrazolo[1,5-a]pyridin-7-amine] was 1.2 µM.
As to `c1cc(NC2CCCC2)n2nc(CCCN3CCCC3)c(-c3ccnc(NC4CCCC4)n3)c2c1` [Example 23, N-Cyclopentyl-3-[2-(cyclopentylamino)-4-pyrimidinyl]-2-[3-(1-pyrrolidinyl)propyl]pyrazolo[1,5-a]pyridin-7-amine], the IC50 is > 2.5 µM.
Consider `CSc1nccc(-c2c(CNC(C)C)nn3ccccc23)n1` [Example 24, N-({3-[2-(Methylsulfanyl)-4-pyrimidinyl]pyrazolo[1,5-a]pyridin-2-yl}methyl)-2-propanamine], for which the midpoint of inhibition, the IC50, lay at 2.1 µM.
For the molecule `CC(C)NCc1nn2ccccc2c1-c1ccnc(NC2CCCC2)n1` [Example 25, N-Cyclopentyl-4-{2-[(isopropylamino)methyl]pyrazolo[1,5-a]pyridin-3-yl}-2-pyrimidinamine], the half-maximal inhibitory concentration (IC50) came out at 27 µM.
As to `CC(C)NCc1nn2c(NC3CCCC3)cccc2c1-c1ccnc(NC2CCCC2)n1` [Example 26, N-Cyclopentyl-3-[2-(cyclopentylamino)-4-pyrimidinyl]-2-[(isopropylamino)methyl]pyrazolo[1,5-a]pyridin-7-amine], the IC50 is > 2.5 µM.
`CC(C)NCCCc1nn2c(Cl)cccc2c1-c1ccnc(NC2CCCC2)n1` [Example 27, 4-{7-Chloro-2-[3-(isopropylamino)propyl]pyrazolo[1,5-a]pyridin-3-yl}-N-cyclopentyl-2-pyrimidinamine] registered an IC50 of 23 µM.
`CC(C)NCCCc1nn2c(NC3CCCC3)cccc2c1-c1ccnc(NC2CCCC2)n1` [Example 28, N-Cyclopentyl-3-[2-(cyclopentylamino)-4-pyrimidinyl]-2-[3-(isopropylamino)propyl]pyrazolo[1,5-a]pyridin-7-amine]: the IC50 was > 5 µM.
On to `COCCOCc1nn2c(Cl)cccc2c1-c1ccnc(NC2CCCC2)n1` [Example 29, 4-{7-Chloro-2-[(2-methoxyethoxy)methyl]pyrazolo[1,5-a]pyridin-3-yl}-N-cyclopentyl-2-pyrimidinamine], for which the IC50 was found to be 23 µM.
In turn, `COCCNc1cccc2c(-c3ccnc(NC4CCCC4)n3)c(COCCOC)nn12` [Example 30, 3-[2-(Cyclopentylamino)-4-pyrimidinyl]-2-[(2-methoxyethoxy)methyl]-N-(2-methoxyethyl)pyrazolo[1,5-a]pyridin-7-amine] displayed an IC50 of 4.7 µM.
The molecule `COCCOCc1nn2c(NC3CCCC3)cccc2c1-c1ccnc(NC2CCCC2)n1` [Example 31, N-Cyclopentyl-3-[2-(cyclopentylamino)-4-pyrimidinyl]-2-[(2-methoxyethoxy)methyl]pyrazolo[1,5-a]pyridin-7-amine] came in with an IC50 of 1.5 µM. This IC50 is about 3.1-fold lower than that of the molecule before.
Consider `CC(C)c1nn2ccccc2c1-c1ccnc(NC2CCCC2)n1` [Example 32, N-Cyclopentyl-4-(2-isopropylpyrazolo[1,5-a]pyridin-3-yl)pyrimidin-2-amine], for which the half-maximal inhibitory concentration (IC50) stood at 4.4 µM.
With `CC(C)c1nn2c(NC3CCCC3)cccc2c1-c1ccnc(NC2CCCC2)n1` [Example 33, N-Cyclopentyl-3-[2-(cyclopentylamino)pyrimidin-4-yl]-2-isopropylpyrazolo[1,5-a]pyridin-7-amine], the IC50 is 2 µM.
